Results taken from paper PMC5413848, “Optimization of intestinal microsomal preparation in the rat: A systematic approach to assess the influence of various methodologies on metabolic activity and scaling factors” (Biopharmaceutics & Drug Disposition, 2017).
Several values for one entry are separate records, joined by “and”; a condition that tells them apart may be missing. Equal entries are not always repeated.

Experiments:
[1] = CYP activity: testosterone metabolite formation in rat intestinal microsomes; assay type: in vitro ADME; settings: for Maximal rate of testosterone metabolite formation: 100 μM testosterone, 1 mg/ml
Description: The CYP enzyme activities were determined for the in‐house and commercial intestinal microsomes using the probe substrate testosterone. Testosterone metabolites and the respective rat cyp isoforms responsible for their formation are shown in Supplemental material Table 1 33. […] The reactions were initiated by the addition of testosterone. Samples were taken at 5, 15, 30 and 60 min. […] Following optimization of the bioanalytical methodology to improve reproducibility and sensitivity based on increasing the efficiency of protein precipitation 37, the samples were quenched 1:2 (sample: quench) in ice cold acetonitrile containing internal standard (1 μM 11‐β OH TEST) and stored overnight at −20°C. The following day, the plates were spun at 3000 rpm for 15 min, and 50 μl supernatant was diluted in 200 μl UPH2O. Samples were quantified using a Waters Acquity UPLC system with a PDA coupled to a G2 Q‐ToF MS (Waters, Milford, MA, USA), and a Acquity UPLC BEH C18 column, 130 Å, 1.7 μm, 2.1 mm × 100 mm and Acquity UPLC column with an in‐Line Filter Kit made up of the same phase (Waters). The sample (25 μl) was detected using an electrospray interface in positive mode, and source and desolvation temperatures, and desolvation and cone gas flows were 120°C and 400°C, and 800 l/h and 20 l/h, respectively. The cone voltage was 30 V. The elution times and LLOQ of testosterone and its hydroxy metabolites are shown in Supplemental material Table 2. The quantification of testosterone metabolites listed in Supplemental material Table 1 was made using standard curves (5–5000 pmol/ml) prepared from no cofactor added microsomes and prepared identically to the assay samples.

[2] = set-up: method as in PMID 11587497; settings: Wistar rat intestinal microsomes prepared by elution, 30 cm intestine; cited from earlier work
[3] = set-up: method as in PMID 11587497; settings: cited from earlier work
[4] = Substrate depletion in in-house rat intestinal microsome pools 1 and 2, combined CYP and UGT cofactors; settings: Han-Wistar, rat, microsomes, pH 7.4, CL int,u, in-house combined cofactors, 1 μM compound
Description: (§1) Microsomes prepared previously via the optimized method (preparation method 8) were combined to form pool 1 (n = 9 rats). A second set of three preparations was combined to form pool 2 (n = 9 rats). Intestinal microsomes were also prepared from intestinal tissue flash‐frozen in tubes on arrival in the laboratory and kept at −80°C until thawing on ice on the morning of preparation, (n = 3 occasions of n = 3 samples). In addition, for comparative purposes microsomes were also prepared from scraped intestinal tissues. Microsomes were prepared after cutting along the length of intestine and gently scraping the intestinal epithelial with a glass microscope slide (n = 1 occasion, n = 3 samples). Commercially available pooled intestinal microsomes were also used as a comparator to those produced in‐house. […] The microsomes were stored at −80°C prior to experiments.
The microsomes prepared from the final optimized preparation method (method 8) were measured for CYP content on the day of preparation prior to storage. These microsomes (n = 3 samples prepared on n = 3 separate occasions) were subsequently thawed on ice and pooled for pool 1. The pool 1 microsomes were then assayed for testosterone and 4‐NP metabolite formation. Additional intestinal microsomes were created using the identical methodology with the same number of rat intestinal samples (n = 3 samples prepared on n = 3 occasions) and assayed for testosterone and 4‐NP metabolite formation as well as for CYP content on the day of preparation before storage. The microsomes from this second set of preparations were then thawed and pooled to form pool 2.
(§2) Midazolam and 7‐hydroxycoumarin were both incubated at 1 mg/ml and 0.5 mg/ml. The microsomes were incubated on ice with alamethacin (50 μg/mg) for 15 min. […] The samples were quenched with ice cold acetonitrile (3:1 quench to sample) containing the internal standard (AZ1). The total incubation time was 40 min. Quenched samples were stored overnight at −20°C. The following day, the samples were diluted with 200 μl UPH2O, and spun at 3000 rpm (Sorvall legend RT centrifuge) for 15 min, and 200 μl of supernatant taken for analysis.

[5] = Substrate depletion in commercial Han Wistar rat intestinal microsomes, combined or individual CYP and UGT cofactors; settings: for microsomal CLint at 1 μM: male, Han Wistar, rat, microsomes, pH 7.4, CL int,u, Commercial Han Wistar pool, 1 mg/ml, 1 μM compound
Description: as §1, §2

[6] = In vitro-in vivo extrapolation of rat intestinal unbound intrinsic clearance (CL int,u,gut); assay type: in vitro ADME
Description: The CL int,u values were scaled to give CL int,u,gut using scaling factors for the corresponding microsomal pool (Eq. (5)). The use of scalars from the mean of both pools was also investigated, and was also used for scaling of commercial microsome CL int,u data.
(5) CLint,u,G=CLuint⋅MPPGI⋅Intestine Segment Weight

[7] = Nonspecific protein binding in rat intestinal microsomes (96-well micro-equilibrium dialysis); settings: rat intestinal microsomes 1 mg/ml, compound 1 μM
Description: Nonspecific protein binding was determined in microsomes (1 mg/ml) using high throughput 96‐well micro‐equilibrium dialysis methodology (HTDialysis, LLC, Gales Ferry, CT, USA). These experiments used dialysis membrane strips with 12–14 kDa molecular mass cut‐off (HTDialysis). The microsomes were constituted in 0.1 M phosphate buffer (pH 7.4). The final concentrations of the test compounds was 1 μM. Microsomes containing the test compound were aliquoted into donor wells in triplicate, and buffer placed in the acceptor wells. The plate was incubated at 37°C and left to equilibrate on a plate shaker (450 rpm) for 4 h. Samples from both the acceptor and donor sides of the membrane were then transferred to 96‐well plates and quenched in acetonitrile containing internal standard (AZ1). The same sample preparation and LC–MS/MS methodology was used as described for the microsomal incubations. Compound MS transitions and retention times are reported in Supplemental material Table 3. Fuinc was calculated as the ratio of acceptor to donor both normalized for internal standard as described previously 41. Correction for protein binding for depletion experiments undertaken at 0.5 mg/ml were made using Equation (4).
(4) fumic,2=1/[P]mic,2/Pmic,1×1−fumic,1/fumic,1+1
where mic,1 denotes 1 mg/ml and mic,2 is 0.5 mg/ml.

[8] = previous study, corrected for fu inc of this study; cited from earlier work
[9] = Pool 1, FT (1 freeze-thaw cycle)

C[C@]12CC[C@H]3[C@@H](CCC4=CC(=O)CC[C@@]43C)[C@@H]1C[C@@H](O)[C@@H]2O [16α‐OH TEST]
Fold higher mean metabolite formation in pool 2 (vs pool 1) [1]: 2.5 fold

C[C@]12CC[C@H]3[C@@H](C[C@@H](O)C4=CC(=O)CC[C@@]43C)[C@@H]1CC[C@@H]2O [6β‐OH TEST]
6β-OH TEST formation, previously reported [2]: 289 ± 5 pmol/min/mg
Maximal rate of testosterone metabolite formation ([1]; Commercial HW, FT): 190 ± 53.5 pmol/min/mg
Maximal rate of testosterone metabolite formation ([1]; Commercial SD, FT): 167.2 ± 43.7 pmol/min/mg
Maximal rate of testosterone metabolite formation [1, 9]: 85.3 ± 32.5 pmol/min/mg
Maximal rate of testosterone metabolite formation ([1]; Pool 2, FT): 187.5 pmol/min/mg and 187.5 ± 77.8 pmol/min/mg
Maximal rate of testosterone metabolite formation ([1]; Pool 2, Fresh): 113.3 pmol/min/mg and 113.3 ± 30.9 pmol/min/mg
Maximal rate of testosterone metabolite formation ([1]; Scraping, FT): 66.1 pmol/min/mg and 66.1 ± 4.8 pmol/min/mg
Fold higher mean metabolite formation in pool 2 (vs pool 1) [1]: 2.2 fold

O=[N+]([O-])c1ccc(O)cc1 [4‐NP, 4‐nitrophenol]
4-NP glucuronidation, previously reported [3]: 7 ± 0.81 nmol/min/mg

C[C@]12CCC(=O)C=C1CC[C@@H]1[C@@H]2CC[C@]2(C)C(=O)CC[C@@H]12 [Androstenedione]
Maximal rate of testosterone metabolite formation ([1]; Commercial HW, FT): 314.5 ± 55.3 pmol/min/mg
Maximal rate of testosterone metabolite formation ([1]; Commercial SD, FT): 371.6 ± 7.2 pmol/min/mg
Maximal rate of testosterone metabolite formation [1, 9]: 560.7 ± 6.6 pmol/min/mg
Maximal rate of testosterone metabolite formation ([1]; Pool 2, FT): 548.7 ± 188.7 pmol/min/mg
Maximal rate of testosterone metabolite formation ([1]; Pool 2, Fresh): 429.9 ± 30.9 pmol/min/mg
Maximal rate of testosterone metabolite formation ([1]; Scraping, FT): 457.0 ± 60.4 pmol/min/mg

Cc1ncc2n1-c1ccc(Cl)cc1C(c1ccccc1F)=NC2 [Midazolam]
microsomal CLint at 1 μM ([4]; Pool 1, pool 1, 1 mg/ml, CYP and UGT cofactors): 22 µL/min/mg
microsomal CLint at 1 μM ([4]; Pool 2, pool 2, cell marked with footnotes a and b (1 mg/ml and 0.5 mg/ml)): 18.2 µL/min/mg
Main route of elimination (CYP vs UGT cofactors) ([5]; commercial Han Wistar microsomes, individual cofactors): CYP mediated metabolism
microsomal CLint at 1 μM ([5]; CYP cofactors, CYP cofactors only): 18.2 µL/min/mg
microsomal CLint at 1 μM ([5]; Combined cofactors, combined CYP and UGT cofactors): 12.3 µL/min/mg
microsomal CLint at 1 μM ([5]; UGT cofactors, UGT cofactors only): 2.8 µL/min/mg
CL int,u,gut, Combined in-house pools ([6]; mean of pool 1 and pool 2 CL int,u and scaling factors): 6.12 L/h
CL int,u,gut, Pool 1 Mean ([6]; pool 1, pool specific scaling factors, threshold 0.01 l/h): 4.13 L/h
CL int,u,gut, Pool 2 Mean ([6]; pool 2, pool specific scaling factors, threshold 0.01 l/h): 7.36 L/h
fuinc [7]: 0.72
CL int,u in commercially available Sprague-Dawley microsomes [8]: 8.3 µL/min/mg
